The source of these data is patent publication US10766869B2, “Triazoles for the treatment of demyelinating dieases” (Vertex Pharmaceuticals Incorporated, priority 2015, dated 2020).

This assay has as its system primary rat mixed cortical cells. In words: In vitro myelination assay (MBP positive myelin strands, fold myelin pixels above background). The class given is cell-based. As to conditions: Rattus norvegicus, relative to baseline of no added compound; for fold induction at 1 µM: 1.0 μM compound, read-out: Fold myelin pixels above background, 1.0 μM; for fold induction at 10 µM: 10.0 μM compound, read-out: Fold myelin pixels above background, 10.0 μM. In outline: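 Read-out is total MBP-positive myelin strand pixels per well, detected by custom ridge-tracing software and reported as fold over untreated baseline. Primary P1 rat mixed cortical cells received compound (1.0 or 10.0 μM) for 14 days, with medium half-replaced on days 6 and 10. Standard deviation was taken across all replicates.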

For the compound `CCc1cc(Nc2ncn(-c3cc(C)ncn3)n2)cc(N2CCN(C3COC3)CC2)c1` [Compound 58, N-[3-ethyl-5-[4-(oxetan-3-yl)piperazin-1-yl]phenyl]-1-(6-methylpyrimidin-4-yl)-1,2,4-triazol-3-amine], the fold induction at 1 µM lay within 100 to 1000 and the fold induction at 10 µM was 100 to 1000.

In the case of `Cc1cc(Nc2ncn(-c3ccccc3)n2)cc(N2CCNC(CO)C2)c1` (stereo not drawn) [Compound 59, [4-[3-methyl-5-[(1-phenyl-1,2,4-triazol-3-yl)amino]phenyl]piperazin-2-yl]methanol], the fold induction at 1 µM lay in the range of 100 to 1000 and the fold induction at 10 µM lay within 100 to 1000.

Consider `Cc1cc(Nc2ncn(-c3ccccc3)n2)cc(C2CCCN(C)C2)c1` (stereo not drawn) [Compound 60, N-[3-methyl-5-(1-methyl-3-piperidyl)phenyl]-1-phenyl-1,2,4-triazol-3-amine], for which the fold induction at 1 µM lay in the range of 1000 to 10000 and the fold induction at 10 µM is at most 1.

For the compound `Cc1cc(Nc2ncn(-c3cc(F)cc(F)c3)n2)cc(C2=CCN(C3COC3)CC2)c1` [Compound 61, 1-(3,5-difluorophenyl)-N-[3-methyl-5-[1-(oxetan-3-yl)-3,6-dihydro-2H-pyridin-4-yl]phenyl]-1,2,4-triazol-3-amine], the fold induction at 1 µM lay in the range of 1000 to 10000 and the fold induction at 10 µM is at most 1.

`FC(F)c1cc(Nc2ncn(-c3ccccc3)n2)cc(N2CCNCC2)c1` [Compound 62, N-[3-(difluoromethyl)-5-piperazin-1-yl-phenyl]-1-phenyl-1,2,4-triazol-3-amine]: the fold induction at 1 µM was in the range of 1000 to 10000 and the fold induction at 10 µM was at most 1.

As for `CN1CCN(c2cc(Nc3ncn(-c4cc(F)cc(F)c4)n3)cc(C(F)(F)F)c2)CC1` [Compound 63, 1-(3,5-difluorophenyl)-N-[3-(4-methylpiperazin-1-yl)-5-(trifluoromethyl)phenyl]-1,2,4-triazol-3-amine], the fold induction at 1 µM was in the range of 10 to 100 and the fold induction at 10 µM lay within 1 to 10.

Consider `CSc1nccc(-n2cnc(Nc3cc(C)cc(N4CCN(C5COC5)CC4)c3)n2)n1` [Compound 64, N-[3-methyl-5-[4-(oxetan-3-yl)piperazin-1-yl]phenyl]-1-(2-methylsulfanylpyrimidin-4-yl)-1,2,4-triazol-3-amine], for which the fold induction at 1 µM lay within 10 to 100 and the fold induction at 10 µM is at most 1.

As for `Cc1cc(Nc2ncn(-c3ccccc3)n2)cc(C2CN(C3COC3)C2)c1` [Compound 65, N-[3-methyl-5-[1-(oxetan-3-yl)azetidin-3-yl]phenyl]-1-phenyl-1,2,4-triazol-3-amine], the fold induction at 1 µM is 1000 to 10000 and the fold induction at 10 µM lay in the range of 1 to 10.

`Cc1cc(Nc2ncn(-c3cc(F)c(C#N)cc3F)n2)cc(N2CCN(C3COC3)CC2)c1` [Compound 66, 2,5-difluoro-4-[3-[3-methyl-5-[4-(oxetan-3-yl)piperazin-1-yl]anilino]-1,2,4-triazol-1-yl]benzonitrile]: the fold induction at 1 µM lay in the range of 10 to 100 and the fold induction at 10 µM lay within 10 to 100.

`Cc1cc(Nc2ncn(-c3cc(F)cc(F)c3)n2)cc(N2CCN(C3COC3)CC2=O)c1` [Compound 67, 1-[3-[[1-(3,5-difluorophenyl)-1,2,4-triazol-3-yl]amino]-5-methyl-phenyl]-4-(oxetan-3-yl)piperazin-2-one]: the fold induction at 1 µM is 1 to 10 and the fold induction at 10 µM was 10 to 100.

On to `Cc1cc(Nc2ncn(-c3cnccn3)n2)cc(N2CCN(C)CC2)c1` [Compound 68, N-[3-methyl-5-(4-methylpiperazin-1-yl)phenyl]-1-pyrazin-2-yl-1,2,4-triazol-3-amine], for which the fold induction at 1 µM is 100 to 1000 and the fold induction at 10 µM lay within 1000 to 10000.

In the case of `CCc1cc(Nc2ncn(-c3ccc(F)c(F)c3)n2)cc(N2CCN(C3COC3)CC2)c1` [Compound 69, 1-(3,4-difluorophenyl)-N-[3-ethyl-5-[4-(oxetan-3-yl)piperazin-1-yl]phenyl]-1,2,4-triazol-3-amine], the fold induction at 1 µM fell in the range of 1000 to 10000 and the fold induction at 10 µM is 10 to 100.

As to `Cc1ccc(-n2cnc(Nc3cc(C)cc(N4CCN(C5COC5)CC4)c3)n2)cc1` [Compound 70, N-[3-methyl-5-[4-(oxetan-3-yl)piperazin-1-yl]phenyl]-1-(p-tolyl)-1,2,4-triazol-3-amine], the fold induction at 1 µM was at most 1 and the fold induction at 10 µM is 10 to 100.

Take `Cc1cc(Nc2ncn(-c3ccccc3)n2)cc(C2CCN(C3COC3)CC2)c1` [Compound 71, N-[3-methyl-5-[1-(oxetan-3-yl)-4-piperidyl]phenyl]-1-phenyl-1,2,4-triazol-3-amine]: the fold induction at 1 µM lay in the range of 1000 to 10000 and the fold induction at 10 µM is at most 1.

As to `CCOC(=O)CN1CCN(c2cc(C)cc(Nc3ncn(-c4cc(F)cc(F)c4)n3)c2)CC1` [Compound 72, ethyl 2-[4-[3-[[1-(3,5-difluorophenyl)-1,2,4-triazol-3-yl]amino]-5-methyl-phenyl]piperazin-1-yl]acetate], the fold induction at 1 µM is 10 to 100 and the fold induction at 10 µM was in the range of 1 to 10.

Take `Cc1cc(F)cc(-n2cnc(Nc3cc(C4CC4)cc(N4CCN(C5COC5)CC4)c3)n2)c1` [Compound 73, N-[3-cyclopropyl-5-[4-(oxetan-3-yl)piperazin-1-yl]phenyl]-1-(3-fluoro-5-methyl-phenyl)-1,2,4-triazol-3-amine]: the fold induction at 1 µM lay within 100 to 1000 and the fold induction at 10 µM is at most 1.

Turning to `Cc1cc(Nc2ncn(-c3cnccn3)n2)cc(C2CCCN(C3COC3)C2)c1` (stereo not drawn) [Compound 74, N-[3-methyl-5-[1-(oxetan-3-yl)-3-piperidyl]phenyl]-1-pyrazin-2-yl-1,2,4-triazol-3-amine], the fold induction at 1 µM lay within 100 to 1000 and the fold induction at 10 µM is 100 to 1000.

On to `Cc1cc(Nc2ncn(-c3cnccn3)n2)cc(N2CCN(C3CC(F)(F)C3)CC2)c1` [Compound 75, N-[3-[4-(3,3-difluorocyclobutyl)piperazin-1-yl]-5-methyl-phenyl]-1-pyrazin-2-yl-1,2,4-triazol-3-amine], for which the fold induction at 1 µM is at most 1 and the fold induction at 10 µM is 100 to 1000.

Take `Cc1cc(Nc2ncn(-c3ccccc3)n2)cc(N2CCN(C)C(=O)C2)c1` [Compound 76, 1-methyl-4-[3-methyl-5-[(1-phenyl-1,2,4-triazol-3-yl)amino]phenyl]piperazin-2-one]: the fold induction at 1 µM lay in the range of 100 to 1000 and the fold induction at 10 µM is 100 to 1000.

On to `Cc1cc(Nc2ncn(-c3cc(F)cc(F)c3)n2)cc(N2CCNCC2)c1` [Compound 77, 1-(3,5-difluorophenyl)-N-(3-methyl-5-piperazin-1-yl-phenyl)-1,2,4-triazol-3-amine], for which the fold induction at 1 µM fell in the range of 100 to 1000 and the fold induction at 10 µM is at most 1.

For the compound `Cc1cc(Nc2ncn(-c3cc(F)cc(F)c3)n2)cc(N2C[C@@H]3C[C@H]2CN3C2CC2)c1` [Compound 78, N-[3-[(1S,4S)-2-cyclopropyl-2,5-diazabicyclo[2.2.1]heptan-5-yl]-5-methyl-phenyl]-1-(3,5-difluorophenyl)-1,2,4-triazol-3-amine], the fold induction at 1 µM was in the range of 100 to 1000 and the fold induction at 10 µM was at most 1.

For the compound `Cc1cc(Nc2ncn(-c3cc(F)cc(F)c3)n2)cc(N2CCN(C(CO)CO)CC2)c1` [Compound 79, 2-[4-[3-[[1-(3,5-difluorophenyl)-1,2,4-triazol-3-yl]amino]-5-methyl-phenyl]piperazin-1-yl]propane-1,3-diol], the fold induction at 1 µM was in the range of 10 to 100 and the fold induction at 10 µM was at most 1.

Regarding `Fc1cc(Nc2ncn(-c3ccccc3)n2)cc(N2CCOCC2)c1` [Compound 80, N-(3-fluoro-5-morpholino-phenyl)-1-phenyl-1,2,4-triazol-3-amine], the fold induction at 1 µM was 10 to 100 and the fold induction at 10 µM lay in the range of 1000 to 10000.

For `Cc1cc(Nc2ncn(-c3ccc(C#N)cc3)n2)cc(N2CCN(C)CC2)c1` [Compound 81, 4-[3-[3-methyl-5-(4-methylpiperazin-1-yl)anilino]-1,2,4-triazol-1-yl]benzonitrile], the fold induction at 1 µM was in the range of 1 to 10 and the fold induction at 10 µM was at most 1.

`Fc1cc(F)cc(-n2cnc(Nc3cc(C(F)F)cc(N4CCN(C5COC5)CC4)c3)n2)c1` [Compound 82, N-[3-(difluoromethyl)-5-[4-(oxetan-3-yl)piperazin-1-yl]phenyl]-1-(3,5-difluorophenyl)-1,2,4-triazol-3-amine]: the fold induction at 1 µM fell in the range of 1000 to 10000 and the fold induction at 10 µM lay in the range of 100 to 1000.

As for `Fc1cc(Nc2ncn(-c3ccccc3F)n2)cc(N2CCCC2)c1` [Compound 83, 1-(2-fluorophenyl)-N-(3-fluoro-5-pyrrolidin-1-yl-phenyl)-1,2,4-triazol-3-amine], the fold induction at 1 µM was at most 1 and the fold induction at 10 µM lay within 10 to 100.

Consider `Cc1cc(Nc2ncn(-c3ccncc3)n2)cc(N2CCOCC2)c1` [Compound 84, N-(3-methyl-5-morpholino-phenyl)-1-(4-pyridyl)-1,2,4-triazol-3-amine], for which the fold induction at 1 µM fell in the range of 1000 to 10000 and the fold induction at 10 µM was in the range of 10 to 100.

`Fc1cc(-n2cnc(Nc3cc(C(F)F)cc(N4CCOCC4)c3)n2)ccn1` [Compound 85, N-[3-(difluoromethyl)-5-morpholino-phenyl]-1-(2-fluoro-4-pyridyl)-1,2,4-triazol-3-amine]: the fold induction at 1 µM lay within 100 to 1000 and the fold induction at 10 µM was in the range of 100 to 1000.

For the compound `COc1cccc(-n2cnc(Nc3cc(C)cc(N4CCN(C5COC5)CC4)c3)n2)c1` [Compound 86, 1-(3-methoxyphenyl)-N-[3-methyl-5-[4-(oxetan-3-yl)piperazin-1-yl]phenyl]-1,2,4-triazol-3-amine], the fold induction at 1 µM is 100 to 1000 and the fold induction at 10 µM was 100 to 1000.

Regarding `Cc1cc(Nc2ncn(-c3ccccc3)n2)cc(N2CCN(C3CCCC3)CC2)c1` [Compound 87, N-[3-(4-cyclopentylpiperazin-1-yl)-5-methyl-phenyl]-1-phenyl-1,2,4-triazol-3-amine], the fold induction at 1 µM was 100 to 1000 and the fold induction at 10 µM lay within 100 to 1000.
